According to patent US20250368666A1, “INDAZOLE COMPOUNDS” (TYRA BIOSCIENCES, INC., priority 2022, published 2025):
Like-named read-outs stand apart in the source and are kept apart here.

Key:
FGFR1 = biological target: T1, FGFR1 (Homo sapiens, UniProt P11362); test: Kinase binding assay (kinase-tagged T7 phage, affinity beads, qPCR), Kd; conditions: read-out: FGFR1 (Kd nM)
T1 construct: made in house; host or cells: E. coli (BL21-derived), T7 phage
Method: (§1) Kinase-tagged T7 phage strains were prepared in an E. coli host derived from the BL21 strain. E. coli were grown to log-phase and infected with T7 phage and incubated with shaking at 32° C. until lysis. The lysates were centrifuged and filtered to remove cell debris. Streptavidin-coated magnetic beads were treated with biotinylated small molecule ligands for 30 minutes at room temperature to generate affinity resins for kinase assays. The liganded beads were blocked with excess biotin and washed with blocking buffer SeaBlock (Pierce), 1% BSA, 0.05% Tween 20, 1 mM DTT to remove unbound ligand and to reduce non-specific binding.
(§2) Test compounds were prepared as 111× stocks in 100% DMSO. Kds were determined using an 11-point 3-fold compound dilution series with three DMSO control points. […] The compounds were then diluted directly into the assays such that the final concentration of DMSO was 0.9%. All reactions performed in polypropylene 384-well plate. Each was a final volume of 0.02 ml. […] The kinase concentration in the eluates was measured by qPCR.
(§3) Binding constants were calculated with a standard dose-response curve using the Hill equation: […]
(§4) The Hill Slope was set to −1. Curves were fitted using a non-linear least square fit with the Levenberg-Marquardt algorithm.

FGFR3 = biological target: T2, FGFR3 (Homo sapiens, UniProt P22607); test: as above; conditions: read-out: FGFR3 (Kd nM)
T2 construct: made in house; host or cells: E. coli (BL21-derived), T7 phage
T2 sequence (P22607 23-806): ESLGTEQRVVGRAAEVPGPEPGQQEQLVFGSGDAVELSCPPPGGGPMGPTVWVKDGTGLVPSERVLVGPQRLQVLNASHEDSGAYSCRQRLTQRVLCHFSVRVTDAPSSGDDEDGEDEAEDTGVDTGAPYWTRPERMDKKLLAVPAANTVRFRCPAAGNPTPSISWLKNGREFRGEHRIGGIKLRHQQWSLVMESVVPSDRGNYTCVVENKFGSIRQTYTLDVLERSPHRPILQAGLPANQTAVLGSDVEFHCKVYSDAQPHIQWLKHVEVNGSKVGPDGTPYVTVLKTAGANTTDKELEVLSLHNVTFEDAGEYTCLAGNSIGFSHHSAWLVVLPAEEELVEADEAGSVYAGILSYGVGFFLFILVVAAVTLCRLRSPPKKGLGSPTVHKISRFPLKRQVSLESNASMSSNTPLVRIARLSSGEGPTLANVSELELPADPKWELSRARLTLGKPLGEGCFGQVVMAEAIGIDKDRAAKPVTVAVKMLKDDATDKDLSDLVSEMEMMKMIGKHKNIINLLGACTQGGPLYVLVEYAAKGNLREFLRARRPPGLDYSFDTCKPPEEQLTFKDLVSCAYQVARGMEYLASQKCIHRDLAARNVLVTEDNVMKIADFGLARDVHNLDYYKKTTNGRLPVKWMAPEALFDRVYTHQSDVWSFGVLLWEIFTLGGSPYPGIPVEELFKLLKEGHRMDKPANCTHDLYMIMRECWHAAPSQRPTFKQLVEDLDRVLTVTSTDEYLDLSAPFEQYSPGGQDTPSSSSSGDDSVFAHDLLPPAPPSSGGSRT
Method: as §1, §2, §3, §4

[1] = kinase binding assay, 11-point 3-fold dilution series

T1 sequence (P11362 22-822): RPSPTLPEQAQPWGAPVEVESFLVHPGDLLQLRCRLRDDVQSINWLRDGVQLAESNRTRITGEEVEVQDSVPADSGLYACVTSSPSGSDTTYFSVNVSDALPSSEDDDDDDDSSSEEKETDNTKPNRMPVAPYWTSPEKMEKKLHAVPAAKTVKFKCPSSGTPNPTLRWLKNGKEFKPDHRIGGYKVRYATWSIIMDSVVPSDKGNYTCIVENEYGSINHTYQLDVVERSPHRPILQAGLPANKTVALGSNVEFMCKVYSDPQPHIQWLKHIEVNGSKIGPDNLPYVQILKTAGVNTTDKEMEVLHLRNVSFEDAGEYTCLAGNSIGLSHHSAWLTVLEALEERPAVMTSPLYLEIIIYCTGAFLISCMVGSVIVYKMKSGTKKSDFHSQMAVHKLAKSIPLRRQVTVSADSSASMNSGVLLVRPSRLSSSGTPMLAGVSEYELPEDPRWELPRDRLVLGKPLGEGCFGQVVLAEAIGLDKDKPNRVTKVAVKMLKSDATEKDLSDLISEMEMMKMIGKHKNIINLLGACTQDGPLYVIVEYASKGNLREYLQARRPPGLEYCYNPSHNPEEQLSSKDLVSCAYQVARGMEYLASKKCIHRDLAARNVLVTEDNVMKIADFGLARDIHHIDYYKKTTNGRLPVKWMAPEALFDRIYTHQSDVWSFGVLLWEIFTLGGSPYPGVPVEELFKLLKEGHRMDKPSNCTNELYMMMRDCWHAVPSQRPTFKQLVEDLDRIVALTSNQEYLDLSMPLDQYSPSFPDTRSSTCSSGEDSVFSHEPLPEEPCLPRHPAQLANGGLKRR

SMILES | Kd (FGFR1) [nM] | Kd (FGFR3) [nM] | Kd (FGFR1; [1]) [nM] | Kd (FGFR3; [1]) [nM]
C[C@@H](Oc1ccc2[nH]nc(-c3cnc(N4CC(C)(NCC(=O)N(C)C)C4)c(F)c3)c2c1)c1c(Cl)cncc1Cl [Example 311, (R)-2-((1-(5-(5-(1-(3,5-dichloropyridin-4-yl)ethoxy)-1H-indazol-3-yl)-3-fluoropyridin-2-yl)-3-methylazetidin-3-yl)amino)-N,N-dimethylacetamide] | 1 to 50 | 1 to 50 |  | 
C[C@@H](Oc1ccc2[nH]nc(-c3ccc(N4CC(C)(NCC(F)F)C4)nn3)c2c1)c1c(Cl)cncc1Cl [Example 312, (R)-1-(6-(5-(1-(3,5-dichloropyridin-4-yl)ethoxy)-1H-indazol-3-yl)pyridazin-3-yl)-N-(2,2-difluoroethyl)-3-methylazetidin-3-amine] | 1 to 50 | 1 to 50 |  | 
C[C@@H](Oc1ccc2[nH]nc(-c3ccc(N4CC(C)(NCCC#N)C4)nn3)c2c1)c1c(Cl)cncc1Cl [Example 313, (R)-3-((1-(6-(5-(1-(3,5-dichloropyridin-4-yl)ethoxy)-1H-indazol-3-yl)pyridazin-3-yl)-3-methylazetidin-3-yl)amino)propane-nitrile] | 1 to 50 | 1 to 50 |  | 
COc1cc2[nH]nc(-c3cnc(N4CC[C@@](C)(N)C4)c(F)c3)c2cc1O[C@H](C)c1c(Cl)cncc1Cl [Example 315, (R)-1-(5-(5-((R)-1-(3,5-dichloropyridin-4-yl)ethoxy)-6-methoxy-1H-indazol-3-yl)-3-fluoropyridin-2-yl)-3-methylpyrrolidin-3-amine] | 1 to 50 | 1 to 50 |  | 
COCC1(N)CN(c2ncc(-c3n[nH]c4ccc(O[C@H](C)c5c(Cl)cncc5Cl)cc34)cc2F)C1 [Example 371, 1-[5-[5-[(1R)-1-(3,5-dichloro-4-pyridyl)ethoxy]-1H-indazol-3-yl]-3-fluoro-2-pyridyl]-3-(methoxy-methyl)aze-tidin-3-amine] | 1 to 50 | 1 to 50 |  | 
C[C@@H](Oc1ccc2[nH]nc(-c3ccc(N4CC(N)(CCCO)C4)nn3)c2c1)c1c(Cl)cncc1Cl [Example 372, (R)-3-(3-amino-1-(6-(5-(1-(3,5-dichloropyridin-4-yl)ethoxy)-1H-indazol-3-yl)pyridazin-3-yl)azetidin-3-yl)propan-1-ol] | 1 to 50 | 1 to 50 |  | 
C[C@H](O)CC1(N)CN(c2ccc(-c3n[nH]c4ccc(O[C@H](C)c5c(Cl)cncc5Cl)cc34)nn2)C1 [Example 373, (S)-1-(3-amino-1-(6-(5-((R)-1-(3,5-dichloropyridin-4-yl)ethoxy)-1H-indazol-3-yl)pyridazin-3-yl)azetidin-3-yl)propan-2-ol] | 1 to 50 | 1 to 50 |  | 
C[C@@H](O)CC1(N)CN(c2ccc(-c3n[nH]c4ccc(O[C@H](C)c5c(Cl)cncc5Cl)cc34)nn2)C1 [Example 374, (R)-1-(3-amino-1-(6-(5-((R)-1-(3,5-dichloropyridin-4-yl)ethoxy)-1H-indazol-3-yl)pyridazin-3-yl)azetidin-3-yl)propan-2-ol] | 1 to 50 | 1 to 50 |  | 
C[C@@H](Oc1ccc2[nH]nc(-c3cnc(N4CCC(N)(CS(C)(=O)=O)CC4)c(F)c3)c2c1)c1c(Cl)cncc1Cl [Example 375, (R)-1-(5-(5-(1-(3,5-dichloropyridin-4-yl)ethoxy)-1H-indazol-3-yl)-3-fluoropyridin-2-yl)-4-((methylsulfonyl)methyl)piperidin-4-amine] | 1 to 50 | 1 to 50 |  | 
COc1cc2[nH]nc(-c3ccc(N4CC(C)(N)C4)nc3)c2cc1O[C@H](C)c1c(Cl)cncc1Cl [Example 379, (R)-1-(5-(5-(1-(3,5-dichloropyridin-4-yl)ethoxy)-6-methoxy-1H-indazol-3-yl)pyridin-2-yl)-3-methylazetidin-3-amine] | 1 to 50 | 1 to 50 |  | 
COc1cc2[nH]nc(-c3ccc(N4CC[C@](C)(N)C4)nc3)c2cc1O[C@H](C)c1c(Cl)cncc1Cl [Example 381, (S)-1-(5-(5-((R)-1-(3,5-dichloropyridin-4-yl)ethoxy)-6-methoxy-1H-indazol-3-yl)pyridin-2-yl)-3-methyl-pyrrolidin-3-amine] | 1 to 50 | 1 to 50 |  | 
COc1cc2[nH]nc(-c3ccc(N4CCC(C)(N)CC4)nc3)c2cc1O[C@H](C)c1c(Cl)cncc1Cl [Example 382, (R)-1-(5-(5-(1-(3,5-dichloropyridin-4-yl)ethoxy)-6-methoxy-1H-indazol-3-yl)pyridin-2-yl)-4-methylpiperidin-4-amine] |  |  | 1 to 50 | 1 to 50
COc1cc2[nH]nc(-c3cnc(N4CCC(C)(N)CC4)c(F)c3)c2cc1O[C@H](C)c1c(Cl)cncc1Cl [Example 383, (R)-1-(5-(5-(1-(3,5-dichloropyridin-4-yl)ethoxy)-6-methoxy-1H-indazol-3-yl)-3-fluoropyridin-2-yl)-4-methylpiperidin-4-amine] |  |  | 1 to 50 | 1 to 50
C[C@@H](O)CC1(N)CN(c2ncc(-c3n[nH]c4ccc(O[C@H](C)c5c(Cl)cncc5Cl)cc34)cc2F)C1 [Example 385, (R)-1-(3-amino-1-(5-(5-((R)-1-(3,5-dichloropyridin-4-yl)ethoxy)-1H-indazol-3-yl)-3-fluoropyridin-2-yl)azetidin-3-yl)propan-2-ol] |  |  | 1 to 50 | 1 to 50
COc1cc2[nH]nc(-c3cnc(N4CC[C@](C)(N)C4)c(F)c3)c2cc1O[C@H](C)c1c(Cl)cncc1Cl [Example 389, (S)-1-(5-(5-((R)-1-(3,5-dichloropyridin-4-yl)ethoxy)-6-methoxy-1H-indazol-3-yl)-3-fluoropyridin-2-yl)-3-methylpyrrolidin-3-amine] |  |  | 1 to 50 | 1 to 50
COc1cc2[nH]nc(-c3ccc(N4CC(C)(N)C4)nn3)c2cc1O[C@H](C)c1c(Cl)cncc1Cl [Example 393, (R)-1-(6-(5-(1-(3,5-dichloropyridin-4-yl)ethoxy)-6-methoxy-1H-indazol-3-yl)pyridazin-3-yl)-3-methylazetidin-3-amine] |  |  | 1 to 50 | 1 to 50
C[C@@H](Oc1ccc2[nH]nc(-c3cnc(N4CC(N)(CC(F)F)C4)c(F)c3)c2c1)c1c(Cl)cncc1Cl [Example 394, (R)-1-(5-(5-(1-(3,5-dichloropyridin-4-yl)ethoxy)-1H-indazol-3-yl)-3-fluoropyridin-2-yl)-3-(2,2-difluoro-ethyl)azetidin-3-amine] |  |  | 1 to 50 | 1 to 50
C[C@@H](Oc1ccc2[nH]nc(-c3cnc(N4CCC(N)(CCS(C)(=O)=O)CC4)c(F)c3)c2c1)c1c(Cl)cncc1Cl [Example 395, (R)-1-(5-(5-(1-(3,5-dichloropyridin-4-yl)ethoxy)-1H-indazol-3-yl)-3-fluoropyridin-2-yl)-4-(2-(methylsulfonyl)ethyl) piperidin-4-amine] |  |  | 1 to 50 | 1 to 50
C[C@@H](Oc1ccc2[nH]nc(-c3cnc(N4CC[C@](C)(N)C4)c(F)c3)c2c1)c1c(Cl)cncc1Cl [Example 396, (S)-1-(5-(5-((R)-1-(3,5-dichloropyridin-4-yl)ethoxy)-1H-indazol-3-yl)-3-fluoropyridin-2-yl)-3-methylpyrrolidin-3-amine] |  |  | 1 to 50 | 1 to 50
C[C@@H](Oc1ccc2[nH]nc(-c3ccc(N4CC(N)(CC(F)F)C4)nn3)c2c1)c1c(Cl)cncc1Cl [Example 397, (R)-1-(6-(5-(1-(3,5-dichloropyridin-4-yl)ethoxy)-1H-indazol-3-yl)pyridazin-3-yl)-3-(2,2-difluoro-ethyl)azetidin-3-amine] |  |  | 1 to 50 | 1 to 50
C[C@@H](Oc1ccc2[nH]nc(-c3ccc(N4CCC(N)(CCS(C)(=O)=O)CC4)nn3)c2c1)c1c(Cl)cncc1Cl [Example 398, (R)-1-(6-(5-(1-(3,5-dichloropyridin-4-yl)ethoxy)-1H-indazol-3-yl)pyridazin-3-yl)-4-(2-(methylsulfonyl)ethyl) piperidin-4-amine] |  |  | 1 to 50 | 1 to 50
CNC(=O)CNC1(C)CN(c2ncc(-c3n[nH]c4ccc(O[C@H](C)c5c(Cl)cncc5Cl)cc34)cc2F)C1 [Example 399, (R)-2-((1-(5-(5-(1-(3,5-dichloropyridin-4-yl)ethoxy)-1H-indazol-3-yl)-3-fluoropyridin-2-yl)-3-methylazetidin-3-yl)amino)-N-methylacetamide] |  |  | 1 to 50 | 1 to 50
C[C@@H](Oc1ccc2[nH]nc(-c3cnc(N4CC[C@@](C)(N)C4)c(F)c3)c2c1)c1c(Cl)cncc1Cl [Example 400, (R)-1-(5-(5-((R)-1-(3,5-dichloropyridin-4-yl)ethoxy)-1H-indazol-3-yl)-3-fluoropyridin-2-yl)-3-methylpyrrolidin-3-amine] |  |  | 1 to 50 | 1 to 50
C[C@@H](Oc1ccc2[nH]nc(-c3cnc(N4CCC(C)(N)CC4)c(F)c3)c2c1)c1c(Cl)cncc1Cl [Example 401] |  |  | 1 to 50 | 1 to 50
CC[C@@]1(N)CCN(c2ccc(-c3n[nH]c4ccc(O[C@H](C)c5c(Cl)cncc5Cl)cc34)nn2)C1 [Example 402, (R)-1-(6-(5-((R)-1-(3,5-dichloropyridin-4-yl)ethoxy)-1H-indazol-3-yl)pyridazin-3-yl)-3-ethylpyrrolidin-3-amine] |  |  | 1 to 50 | 1 to 50
